In this test the target is T1, soybean lipoxygenase (Glycine max, UniProt P08170).
T1 construct: gene LOX1.1
T1 sequence (P08170 1-839): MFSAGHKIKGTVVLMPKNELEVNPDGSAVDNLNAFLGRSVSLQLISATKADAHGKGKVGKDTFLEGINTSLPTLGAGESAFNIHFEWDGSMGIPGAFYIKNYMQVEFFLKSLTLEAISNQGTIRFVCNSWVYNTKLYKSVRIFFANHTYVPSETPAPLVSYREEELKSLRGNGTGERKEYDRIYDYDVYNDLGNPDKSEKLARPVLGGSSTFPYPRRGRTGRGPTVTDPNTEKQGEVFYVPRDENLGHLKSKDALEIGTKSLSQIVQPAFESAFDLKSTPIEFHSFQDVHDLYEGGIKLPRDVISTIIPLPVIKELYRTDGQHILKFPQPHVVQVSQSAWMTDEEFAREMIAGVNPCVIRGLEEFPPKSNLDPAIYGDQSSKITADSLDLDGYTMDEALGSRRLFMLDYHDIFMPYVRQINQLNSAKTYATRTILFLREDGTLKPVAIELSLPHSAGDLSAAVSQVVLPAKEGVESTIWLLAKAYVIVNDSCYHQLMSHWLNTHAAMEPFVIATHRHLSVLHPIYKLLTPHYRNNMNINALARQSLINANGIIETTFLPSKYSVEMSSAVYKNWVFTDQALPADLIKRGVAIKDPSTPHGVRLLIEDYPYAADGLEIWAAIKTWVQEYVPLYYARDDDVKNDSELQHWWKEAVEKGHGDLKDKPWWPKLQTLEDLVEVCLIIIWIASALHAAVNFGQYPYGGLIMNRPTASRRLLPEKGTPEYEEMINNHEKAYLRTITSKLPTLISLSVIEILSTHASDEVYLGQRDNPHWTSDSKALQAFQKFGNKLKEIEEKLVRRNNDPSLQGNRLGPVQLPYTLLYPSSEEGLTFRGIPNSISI
As to the kind of experiment: UV assay at […] nm of sodium linoleate oxidation by soybean lipoxygenase (Sigma). It is filed as biochemical. To be noted: read-out: % Inhibition of LOX 100 μM or IC50 (μM) *.

What is called IC50 is the midpoint of a concentration-inhibition curve.

On to `O=Nc1c(NC(=O)/C=C/c2cccs2)[nH]c(N2CCCCC2)nc1=O` [compound 5, (E)-N-(5-nitroso-6-oxo-2-(piperidin-1-yl)-3,6-dihydropyrimidin-4-yl)-3-(thiophen-2-yl)acrylamide], for which the IC50 stood at 10.7 µM.
As for `O=Nc1c(NC(=O)/C=C/c2cccc3ccccc23)[nH]c(N2CCCCC2)nc1=O` [compound 9, (E)-3-(naphthalen-1-yl)-N-(5-nitroso-6-oxo-2-(piperidin-1-yl)-3,6-dihydropyrimidin-4-yl)acrylamide], the IC50 came out at 1.1 µM.

(Values after paper PMC10974930, “Synthesis and Antioxidant Activities of Novel Pyrimidine Acrylamides as Inhibitors of Lipoxygenase: Molecular Modeling and In Silico Physicochemical Studies” (Molecules, 2024).)
